Values after ≈ are worked out from the molar mass of the structure shown.
Tests used:
[1] = tested on: Candida albicans; experiment: Antifungal activity against Candida albicans SC 5314 assessed as inhibition of visible growth; format: functional
[2] = tested on: Candida albicans; experiment: Antifungal activity against Candida albicans CPCC 400616 assessed as inhibition of visible growth; format: functional
[3] = tested on: Candida tropicalis; experiment: Antifungal activity against Candida tropicalis CGMCC 2.3739 assessed as inhibition of visible growth; format: functional
[4] = tested on: Candida parapsilosis; experiment: Antifungal activity against Candida parapsilosis GIM 2.190 assessed as inhibition of visible growth; format: functional; conditions: Lodderomyces parapsilosis
[5] = tested on: Nakaseomyces glabratus; experiment: Antifungal activity against Clinical isolate Candida glabrata assessed as inhibition of visible growth; format: functional
[6] = tested on: Pichia kudriavzevii; experiment: Antifungal activity against Candida krusei AS 2.1045 assessed as inhibition of visible growth; format: functional
[7] = tested on: Cryptococcus neoformans; experiment: Antifungal activity against Cryptococcus neoformans CGMCC 2.3161 assessed as inhibition of visible growth; format: functional
[8] = Metabolic stability in human liver microsomes assessed as half life by LC-MS/MS analysis; format: ADME, Microsome
[9] = Metabolic stability in human liver microsomes assessed as compound remaining measured up to 60 mins by LC-MS/MS analysis; format: ADME, Microsome
[10] = tested on: Aspergillus fumigatus; experiment: Antifungal activity against Aspergillus fumigatus CGMCC 3.7795 assessed as inhibition of visible growth; format: functional

Row | Structure (SMILES) | MIC80 [1] [mg/L] | MIC80 [2] [mg/L] | MIC80 [3] [mg/L] | MIC80 [4] [mg/L] | MIC80 [5] [mg/L] | MIC80 [6] [mg/L] | MIC80 [7] [mg/L] | t1/2 ([8]; microsomes) [min] | Activity ([9]; microsomes, 1 h) [%] | MIC80 [10] [mg/L] | half-life ([8]; liver microsomes) [min] | remaining at 1 h ([9]; liver microsomes, read-out: Activity) [%]
1 | CN(Cc1ccc(-c2ccc(Cl)cc2)cc1)CC(O)(Cn1cncn1)c1ccc(F)cc1F (stereo unspecified) | 0.006 (≈ 0.0128 µM) | 0.006 (≈ 0.0128 µM) | 0.006 (≈ 0.0128 µM) | 0.006 (≈ 0.0128 µM) | 0.012 (≈ 0.0256 µM) | 0.012 (≈ 0.0256 µM) | 0.012 (≈ 0.0256 µM) | 9.23 | 21.3 | – | – | –
2 | [2H]C([2H])([2H])N(Cc1ccc(-c2ccc(Cl)c(F)c2)cc1F)[C@H](C)[C@](O)(Cn1cncn1)c1ccc(F)cc1F | 0.012 (≈ 0.023 µM) | 0.012 (≈ 0.023 µM) | 0.012 (≈ 0.023 µM) | 0.012 (≈ 0.023 µM) | 0.025 (≈ 0.0479 µM) | 0.025 (≈ 0.0479 µM) | 0.025 (≈ 0.0479 µM) | – | – | 0.05 (≈ 0.0958 µM) | – | –
3 | [2H]C([2H])([2H])N(Cc1ccc(-c2ccc(Cl)c(F)c2)nc1)[C@H](C)[C@](O)(Cn1cncn1)c1ccc(F)cc1F | 0.012 (≈ 0.0238 µM) | 0.012 (≈ 0.0238 µM) | 0.006 (≈ 0.0119 µM) | 0.006 (≈ 0.0119 µM) | 0.012 (≈ 0.0238 µM) | 0.012 (≈ 0.0238 µM) | 0.012 (≈ 0.0238 µM) | – | – | 0.025 (≈ 0.0495 µM) | – | –
4 | [2H]C([2H])([2H])N(Cc1ccc(-c2ccc(OC(F)(F)F)cc2)cc1F)[C@H](C)[C@](O)(Cn1cncn1)c1ccc(F)cc1F | 0.012 (≈ 0.0217 µM) | 0.012 (≈ 0.0217 µM) | 0.012 (≈ 0.0217 µM) | 0.012 (≈ 0.0217 µM) | 0.025 (≈ 0.0452 µM) | 0.05 (≈ 0.0903 µM) | 0.025 (≈ 0.0452 µM) | – | – | 0.05 (≈ 0.0903 µM) | – | –
5 | [2H]C([2H])([2H])N(Cc1ccc(-c2ccc(Cl)cc2F)cc1)[C@H](C)[C@](O)(Cn1cncn1)c1ccc(F)cc1F | 0.006 (≈ 0.0119 µM) | 0.006 (≈ 0.0119 µM) | 0.006 (≈ 0.0119 µM) | 0.006 (≈ 0.0119 µM) | 0.025 (≈ 0.0496 µM) | 0.012 (≈ 0.0238 µM) | 0.012 (≈ 0.0238 µM) | – | – | 0.012 (≈ 0.0238 µM) | – | –
6 | [2H]C([2H])([2H])N(Cc1ccc(-c2ccc(Cl)cc2)cc1F)[C@H](C)[C@](O)(Cn1cncn1)c1ccc(F)cc1F | 0.006 (≈ 0.0119 µM) | 0.006 (≈ 0.0119 µM) | 0.006 (≈ 0.0119 µM) | 0.006 (≈ 0.0119 µM) | 0.012 (≈ 0.0238 µM) | 0.012 (≈ 0.0238 µM) | 0.012 (≈ 0.0238 µM) | – | – | 0.025 (≈ 0.0496 µM) | – | –
7 | [2H]C([2H])([2H])N(Cc1ccc(-c2ccc(Cl)cc2)nc1)[C@H](C)[C@](O)(Cn1cncn1)c1ccc(F)cc1F | 0.006 (≈ 0.0123 µM) | 0.006 (≈ 0.0123 µM) | 0.006 (≈ 0.0123 µM) | 0.006 (≈ 0.0123 µM) | 0.012 (≈ 0.0246 µM) | 0.012 (≈ 0.0246 µM) | 0.006 (≈ 0.0123 µM) | – | – | 0.05 (≈ 0.103 µM) | 2.3 | 1.07
8 | [2H]C([2H])([2H])N(Cc1ccc(-c2ccc(C(F)(F)F)cc2)nc1)[C@H](C)[C@](O)(Cn1cncn1)c1ccc(F)cc1F | 0.012 (≈ 0.0231 µM) | 0.006 (≈ 0.0115 µM) | 0.012 (≈ 0.0231 µM) | 0.006 (≈ 0.0115 µM) | 0.012 (≈ 0.0231 µM) | 0.012 (≈ 0.0231 µM) | 0.012 (≈ 0.0231 µM) | – | – | 0.025 (≈ 0.048 µM) | – | –
9 | [2H]C([2H])([2H])N(Cc1ccc(-c2ccc(Cl)cc2F)nc1)[C@H](C)[C@](O)(Cn1cncn1)c1ccc(F)cc1F | 0.012 (≈ 0.0238 µM) | 0.006 (≈ 0.0119 µM) | 0.012 (≈ 0.0238 µM) | 0.006 (≈ 0.0119 µM) | 0.012 (≈ 0.0238 µM) | 0.012 (≈ 0.0238 µM) | 0.012 (≈ 0.0238 µM) | – | – | 0.05 (≈ 0.099 µM) | – | –
10 | [2H]C([2H])([2H])N(Cc1ccc(-c2ccc(C(F)(F)F)cc2)cc1F)[C@H](C)[C@](O)(Cn1cncn1)c1ccc(F)cc1F | 0.012 (≈ 0.0223 µM) | 0.012 (≈ 0.0223 µM) | 0.012 (≈ 0.0223 µM) | 0.012 (≈ 0.0223 µM) | 0.025 (≈ 0.0465 µM) | 0.05 (≈ 0.093 µM) | 0.025 (≈ 0.0465 µM) | – | – | 0.05 (≈ 0.093 µM) | – | –
11 | O[C@@](Cn1cnnn1)(c1ccc(F)cc1F)C(F)(F)c1ccc(-c2ccc(OCC(F)(F)F)cc2)cn1 [OTESECONAZOLE] | 0.006 (≈ 0.0114 µM) | 0.006 (≈ 0.0114 µM) | 0.006 (≈ 0.0114 µM) | 0.006 (≈ 0.0114 µM) | 0.1 (≈ 0.19 µM) | 0.1 (≈ 0.19 µM) | 0.012 (≈ 0.0228 µM) | – | – | > 64 | – | –

— ChEMBL document CHEMBL6182926, “Design, Synthesis, and Biological Activity Evaluation of Deuterated Diphenyl Azole Alcohol-Based CYP51 Inhibitors” (J Med Chem, 2025)
